The test system of one series is L1210. In words: Cytotoxicity, line L1210 (Microculture Tetrazolium Assay). The settings on record: Mus musculus, L1210, 48 h, read-out: Cytotoxicity IC50, line L1210. It counts as cell-based, murine. From the text:
(§1) The cells are distributed on microplates and exposed to the cytotoxic compounds.

A further series concerns KB-3-1. In words: Cytotoxicity, sensitive line KB-3-1. It counts as cell-based. As to conditions: Homo sapiens, KB 3-1, 96 h, read-out: Cytotoxicity IC50, sensitive KB-3-1.
Text: as §1

Series [1] in a line: Anti-tumour activity against M5076 sarcoma. It is filed as in vivo, female B6D2F1 mice. As to conditions: mouse, in vivo, ip; read-out: maximum tolerated dose. The procedure: (§2) M5076 sarcoma is supplied by NCI (Frederick, USA). The tumour cells (10^7 cells/animal) were inoculated on d0 into the peritoneal cavity of female B6D2F1 mice. The compounds were administered by the i.p. route on d1, d5, d9 and d13 at the doses indicated. The surviving animals on d90 were recorded and the T/C survival (%) was calculated.

The next series relates to M5076 sarcoma. Put plainly: Anti-tumour activity against M5076 sarcoma. It is filed as in vivo, female B6D2F1 mice. As to conditions: for Survivors on d90 / median T/C (survival): i.p., d1, d5, d9, d13. The method, then:
as §2

For series [2], the system named is KB-A1.
In series [3] the test system is KB-A1. In words: cells. The settings on record: Homo sapiens, KB-A1, 96 h, read-out: Cytotoxicity IC50, resistant KB-A1.
The test system of a further series is leukaemia P388. In words: Anti-tumour activity against leukaemia P388 in vivo.
Where [4] appears, read: maximum tolerated dose (2 mg/kg).
[5] abbreviates: 5 mg/kg, intraperitoneal, day 1.

Where only a bound is given, the exact number is not on record here.

The IC50 is the concentration that gives 50% inhibition. A word on the T/C: it is the ratio of treated to control. Consider `Cc1c2cc[n+](C)cc2c(C)c2c1[nH]c1ccc(O)cc12` [elliptinium acetate, reference compound], for which the IC50 in the series with L1210 turned out to be 139 nM. For the same compound, in the series with KB-3-1, the IC50 came to 226 nM. For the same compound, the MTD in series [1] amounted to 2 mg/kg. Moreover, in the series on M5076 sarcoma (1 mg/kg), the “Survivors on d90” value was 1/10 and the “median T/C (survival)” value was found to be 153%. Also, in the series with M5076 sarcoma (2 mg/kg), the “Survivors on d90” value is 0/10 and the “median T/C (survival)” value was determined as 180%. In addition, in the series on M5076 sarcoma (setting [4]), the “activity against that tumour (in words)” value is recorded as “not very active” and the “survivors” value is listed as “no animal has survived”. In the series with KB-A1 [2], the resistance factor came to 19. Besides, the IC50 with KB-A1 [3] came out at 4320 nM. Further, in the series on leukaemia P388 (setting [5]), the “Survivors on d60/total no. of mice” value is 0/10 and the T/C was determined as 171%. The same compound returned a gravimetric variation with leukaemia P388 (at the optimum dose used, equitoxic doses) of -4 g. For the same compound, the “toxic at dose and above” value with leukaemia P388 (mouse, in vivo) is listed as not below 5 mg/kg. For the same compound, the “cures, treated mice (comparators)” value in the series with leukaemia P388 (reference compounds, dose not given) is recorded as “none”.

The record behind these values is patent publication US5407940A, “New ellipticine compounds” (priority 1992, dated 1995).
